Active and inactive are the calls of the source. The rule behind the calls is not given here.
Tests used:
[1] = Binding affinity to human His-tagged PAK4 (300 to 591 residues) L301A mutant expressed in Escherichia coli BL21 (DE3)pLysS by surface plasmon resonance assay
Homo sapiens = species: Homo sapiens; test: Binding affinity to human His-tagged PAK4 (300 to 591 residues) L301A mutant expressed in Escherichia coli BL21 (DE3)pLysS in presence of staurosporine by ligand observed NMR competitive assay

Structure (SMILES)	Kd [1] [µM]	Activity (Homo sapiens)
NS(=O)(=O)c1cccc2cnccc12	300	
Nc1cccc2ncccc12	510	
c1c(Nc2nc(N3CCCCC3)nc3[nH]ncc23)n[nH]c1C1CC1	0.05	
CNC(=O)c1cnn2ccc(C#N)cc12		Active

From ChEMBL document CHEMBL5104209 (RSC Med Chem, 2022)
